Reference: the supplement of paper PMC10307832

How the values were obtained:
Test in all cases: relative viability (nuclei count vs DMSO), 5 days (fraction); higher = more cells survive
[1] = system: NCI-H2347
Summary of the method: (§1)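 Five library-drug doses in √10 steps were combined with a fixed anchor-drug dose, or a single drug was given alone, by pin tool to lung cancer cell lines in 1536-well plates the day after seeding. Nuclei were stained and counted after 5 days. Relative viability is the nuclei count in treated wells over that in vehicle wells, taken as the median of duplicate plates.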

[2] = system: LK-2
Summary of the method: as §1

[3] = system: NCI-H650
Summary of the method: as §1

[4] = system: ChaGo-K-1
Summary of the method: as §1

[5] = system: NCI-H358
Summary of the method: as §1

[6] = system: NCI-H1944
Summary of the method: as §1

[7] = system: SW 900
Summary of the method: as §1

[8] = system: NCI-H520
Summary of the method: as §1

[9] = system: SW 1573
Summary of the method: as §1

[10] = system: NCI-H3122
Summary of the method: as §1

[11] = system: NCI-H460
Summary of the method: as §1

[12] = system: NCI-H1755
Summary of the method: as §1

[13] = system: NCI-H1666
Summary of the method: as §1

[14] = system: NCI-H441
Summary of the method: as §1

[15] = system: A-427
Summary of the method: as §1

[16] = system: H3255
Summary of the method: as §1

[17] = system: NCI-H2085
Summary of the method: as §1

[18] = system: NCI-H1734
Summary of the method: as §1

[19] = system: NCI-H596
Summary of the method: as §1

[20] = system: NCI-H322M
Summary of the method: as §1

[21] = system: NCI-H1650
Summary of the method: as §1

[22] = system: NCI-H1355
Summary of the method: as §1

[23] = system: NCI-H838
Summary of the method: as §1

[24] = system: EKVX
Summary of the method: as §1

[25] = system: NCI-H2228
Summary of the method: as §1

CCCCCCCCCCCC1=C(O)C(=O)C=C(O)C1=O [Embelin] + Nc1nc2[nH]cc(CCc3ccc(C(=O)N[C@@H](CCC(=O)O)C(=O)O)cc3)c2c(=O)[nH]1 [Pemetrexed] (partner 0.2 µM)
relative viability ([1]; first compound 0.08 µM): 0.413
relative viability ([1]; first compound 0.8 µM): 0.482
relative viability ([1]; first compound 2.53 µM): 0.448
relative viability ([1]; first compound 8 µM): 0.434
relative viability ([2]; first compound 0.08 µM): 0.335
relative viability ([2]; first compound 0.8 µM): 0.227
relative viability ([2]; first compound 2.53 µM): 0.385
relative viability ([2]; first compound 8 µM): 0.289
relative viability ([3]; first compound 0.08 µM): 0.968
relative viability ([3]; first compound 0.8 µM): 1.17
relative viability ([3]; first compound 2.53 µM): 0.979
relative viability ([3]; first compound 8 µM): 0.954
relative viability ([4]; first compound 0.08 µM): 0.264
relative viability ([4]; first compound 0.8 µM): 0.258
relative viability ([4]; first compound 2.53 µM): 0.249
relative viability ([4]; first compound 8 µM): 0.251
relative viability ([5]; first compound 0.08 µM): 0.217
relative viability ([5]; first compound 0.8 µM): 0.193
relative viability ([5]; first compound 2.53 µM): 0.178
relative viability ([5]; first compound 8 µM): 0.175
relative viability ([6]; first compound 0.08 µM): 0.545
relative viability ([6]; first compound 0.8 µM): 0.754
relative viability ([6]; first compound 2.53 µM): 0.578
relative viability ([6]; first compound 8 µM): 0.643
relative viability ([7]; first compound 0.08 µM): 0.495
relative viability ([7]; first compound 0.8 µM): 0.527
relative viability ([7]; first compound 2.53 µM): 0.52
relative viability ([7]; first compound 8 µM): 0.473
relative viability ([8]; first compound 0.08 µM): 0.656
relative viability ([8]; first compound 0.8 µM): 0.852
relative viability ([8]; first compound 2.53 µM): 0.708
relative viability ([8]; first compound 8 µM): 0.821
relative viability ([9]; first compound 0.08 µM): 0.92
relative viability ([9]; first compound 0.8 µM): 0.844
relative viability ([9]; first compound 2.53 µM): 0.99
relative viability ([9]; first compound 8 µM): 0.931
relative viability ([10]; first compound 0.08 µM): 0.193
relative viability ([10]; first compound 0.8 µM): 0.202
relative viability ([10]; first compound 2.53 µM): 0.202
relative viability ([10]; first compound 8 µM): 0.2
relative viability ([11]; first compound 0.08 µM): 0.0662
relative viability ([11]; first compound 0.8 µM): 0.072
relative viability ([11]; first compound 2.53 µM): 0.0629
relative viability ([11]; first compound 8 µM): 0.0617
relative viability ([12]; first compound 0.08 µM): 0.448
relative viability ([12]; first compound 0.8 µM): 0.468
relative viability ([12]; first compound 2.53 µM): 0.433
relative viability ([12]; first compound 8 µM): 0.46
relative viability ([13]; first compound 0.08 µM): 0.922
relative viability ([13]; first compound 0.8 µM): 0.894
relative viability ([13]; first compound 2.53 µM): 0.849
relative viability ([13]; first compound 8 µM): 0.817
relative viability ([14]; first compound 0.08 µM): 0.255
relative viability ([14]; first compound 0.8 µM): 0.261
relative viability ([14]; first compound 2.53 µM): 0.301
relative viability ([14]; first compound 8 µM): 0.274
relative viability ([15]; first compound 0.08 µM): 0.993
relative viability ([15]; first compound 0.8 µM): 1.07
relative viability ([15]; first compound 2.53 µM): 0.963
relative viability ([15]; first compound 8 µM): 0.502
relative viability ([16]; first compound 0.08 µM): 0.566
relative viability ([16]; first compound 0.8 µM): 0.616
relative viability ([16]; first compound 2.53 µM): 0.597
relative viability ([16]; first compound 8 µM): 0.585
relative viability ([17]; first compound 0.08 µM): 0.854
relative viability ([17]; first compound 0.8 µM): 1.01
relative viability ([17]; first compound 2.53 µM): 0.87
relative viability ([17]; first compound 8 µM): 0.871
relative viability ([18]; first compound 0.08 µM): 0.434
relative viability ([18]; first compound 0.8 µM): 0.447
relative viability ([18]; first compound 2.53 µM): 0.414
relative viability ([18]; first compound 8 µM): 0.401
relative viability ([19]; first compound 0.08 µM): 0.478
relative viability ([19]; first compound 0.8 µM): 0.507
relative viability ([19]; first compound 2.53 µM): 0.53
relative viability ([19]; first compound 8 µM): 0.445
relative viability ([20]; first compound 0.08 µM): 0.598
relative viability ([20]; first compound 0.8 µM): 0.625
relative viability ([20]; first compound 2.53 µM): 0.646
relative viability ([20]; first compound 8 µM): 0.667
relative viability ([21]; first compound 0.08 µM): 0.437
relative viability ([21]; first compound 0.8 µM): 0.369
relative viability ([21]; first compound 2.53 µM): 0.494
relative viability ([21]; first compound 8 µM): 0.358
relative viability ([22]; first compound 0.08 µM): 1.06
relative viability ([22]; first compound 0.8 µM): 1.13
relative viability ([22]; first compound 2.53 µM): 1.12
relative viability ([22]; first compound 8 µM): 0.784
relative viability ([23]; first compound 0.08 µM): 0.271
relative viability ([23]; first compound 0.8 µM): 0.238
relative viability ([23]; first compound 2.53 µM): 0.252
relative viability ([23]; first compound 8 µM): 0.247
relative viability ([24]; first compound 0.08 µM): 0.406
relative viability ([24]; first compound 0.8 µM): 0.465
relative viability ([24]; first compound 2.53 µM): 0.368
relative viability ([24]; first compound 8 µM): 0.407
relative viability ([25]; first compound 0.08 µM): 0.329
relative viability ([25]; first compound 0.8 µM): 0.347
relative viability ([25]; first compound 2.53 µM): 0.345
relative viability ([25]; first compound 8 µM): 0.39
